According to patent publication US8278289B2, “Boroxine composition for removal of skin changes” (priority 2006, dated 2012):

Assays:
mouse fibro-sarcoma FsaR = assay: Cytotoxic effect on mouse fibro-sarcoma FsaR (crystal violet viability); format: cell-based; settings: viable cells by absorbance at 590 nm after 24 hours with substance; XS100 = dosage 0.5 μg; variation max 10%
Method: (§1) An investigation of anti-tumor activity of the boroxine compound (XS) was conducted on cell lines of mouse fibro-sarcoma FsaR and mouse carcinoma SCC VII.
(§2) Cell lines (mouse fibro-sarcoma FsaR and mouse carcinoma SCC VII) were incubated at optimal conditions for 24 hours, followed by addition of tested substances in a dosage of 0.5 μg (XS100) and combinations with Li (lithium) and SNP (sodium-nitroprusside) Li (lithium) is blocker of GSK-3 (glycogen-synthetase-kinase), an enzyme involved in pathways that modulate cell's death. SNP (sodium-nitroprusside) is modulator of pro-apoptotic protein p53 (tumor suppressor protein).
(§3) Cells were additionally incubated for 24 hours in the presence of the substances. Later, cells were fixed by glutaraldehyde and stained in 0.1% crystal violet. Stain attached to the viable cells was extracted by 0.2% Triton-X 100 and extract absorbance was determined at 590 nm. Value of absorbance is proportional with viable cells number.
(§4) The following results have been obtained (the observed variation of the observed values are a maximum of 10%).

[1] = test system: mouse carcinoma cells SCC VII; assay: Cytotoxic effect on mouse carcinoma cells SCC VII (crystal violet viability); format: cell-based; settings: viable cells by absorbance at 590 nm after 24 hours with substance; XS100 = dosage 0.5 μg; variation max 10%
Method: as §1, §2, §3, §4

Q: How did the “% of control” value (mouse fibro-sarcoma FsaR) turn out when K2[B3O3F4OH] [XS100] was run?
A: Its value is 21 % of control.

Q: What about the “% of control” value [1] of the same substance?
A: The value was 42 % of control.
